According to patent publication US7989420B2, “Smooth muscle relaxation” (New York Medical College, priority 2006, dated 2011):

Key:
[1] = test system: endothelium-rubbed aorta; experiment: Protoporphyrin IX fluorescence in aorta of rats treated with ALA in vivo; design: species or system rat; details: single dose 60 mg/kg ALA i.p., 24 hours after treatment, vs saline-injected rats
Experimental: (§1) The rats were pretreated with 60 mg/kg ALA or with a saline vehicle (i.p.). After 24 hours they were anesthetized with 50 mg/kg sodium pentobarbital and the aorta was removed for in vitro studies. Isolated aortic rings were studied for changes in protoporphyrin IX fluorescence and force under the same conditions similar to those used for bovine pulmonary arteries described above, except that 1 gram of passive force was used.

[2] = humans, factor which limited the doses of ALA, reference (13); cited from earlier work
[3] = test system: sGC; experiment: Western blot of sGC expression in BPA; type: cell-based, bovine; details: organ culture with 100 μM ALA, Western analysis
Experimental: Rings from studies on contractile function were snap-frozen in liquid nitrogen, crushed and homogenized in lysis buffer (50 mM Tris-HCl, pH 8.0, 150 mM NaCl, 1 mM EDTA, 1% Triton X-100, 0.5% sodium deoxycholate, 0.1% sodium dodecyl sulfate, 1% of a protease inhibitor cocktail (Sigma) and 1% of a phosphatase inhibitor cocktail (Sigma). The protease inhibitor cocktail included 4-(2-aminoethyl)benzenesulfonyl floride hydrocholride, aprotinin, bestatin hydrochloride, N-(trans-epoxsuccinyl)-L-leucine-4-guanidinobutylamide, leupeptine hemisulfate, pepstatin and the phosphatase inhibitor cocktail included sodium orthovandate, sodium molybdate, sodium tartarate, and imidazole. Protein concentration was determined and 30 μg of protein samples were prepared in electrophoresis sample buffer containing 3% SDS and 3% β-mercaptoethanol and were separated using a 12% gel SDS-PAGE electrophoresis. Membranes were blocked for 1 h in TBST-5% milk and incubated overnight with phospho-VASP antibodies (diluted 1:1000). Membranes were exposed to a secondary horse radish peroxidase linked antibody and visualized with an ECL kit (Amersham). […] Membranes were subsequently washed, blocked and detected for total VASP. […] Expression of sGC was detected with β-sGC subunit antibodies (diluted 1:2000), employing anti-rabbit secondary antibodies, and a protocol where membranes were blocked for 2 h. […]

[4] = test system: aorta; experiment: Contraction to PDBu of aorta from rats treated with ALA in vivo; design: species or system rat; details: single dose 60 mg/kg ALA i.p., 24 hours after treatment
Experimental: as §1

[5] = test system: bovine bronchi; experiment: Force generation to acetylcholine in organ cultured bovine bronchi; type: cell-based; details: organ culture with 0.1 mM ALA for 24 hrs vs absence of ALA
Experimental: Studies on the Regulation of Contractile Function. Following the overnight incubation, arterial rings were mounted on wire hooks attached to Grass (FT03) force displacement transducers for measurement of changes in isometric force. Tension was adjusted to 5 g, which is the optimal passive force for maximal contraction. Changes in force were recorded on a Grass polygraph (model 7), while vessels were incubated in 10-ml baths (Metro Scientific), which were individually thermostated (37° C.) in Krebs buffer gassed with 21% O2-5% CO2 (balance N2) in the absence of compounds used to modulate BPA protoporphyrin IX levels. Arteries were incubated for 1 h during which passive tension was adjusted to maintain 5 grams. […] The effects of ODQ on relaxation to NO was determined by first contracting organ cultured control and ODQ-treated BPA with 1 μM 5-HT (after the initial exposure to increasing concentrations of 5-HT and a 30 min equilibration in Krebs).
Bovine bronchi were isolated from the same lungs used for pulmonary arteries, and studied for changes in protoporphyrin IX fluorescence and force under the same conditions as bovine pulmonary arteries described above. Superoxide was detected by the chemiluminescence produced by 5 μM lucigenin, which was detected by photon counting in a scintillation counter.

[6] = test system: bovine bronchi; experiment: Protoporphyrin IX fluorescence in organ cultured bovine bronchi; type: cell-based; details: organ culture with 0.1 mM ALA
Description: Determination Changes in Protoporphyrin 1× and Heme Levels. Methods for the detection of protoporphyrin IX tissue fluorescence developed for the detection in cancerous cells with tissue depths of up to several millimeters (27) were adapted for detecting changes in the endogenous levels of protoporphyrin IX in BPA rings which were organ cultured with ALA. When excited with light in the regions of 505 and 540 nm, protoporphyrin IX has an emission in the region of 635 nm. […] Increases in protoporphyrin IX were measured using an excitation wavelength of 528±20 nm and emission of 620±40 nm in intact vessels. Ring segments of approximately equal size (˜4 mm in diameter and length) were centered on the bottom of the ˜6 mm diameter wells of a 96 well microplate with 200 μl of Krebs containing with 10 mM Hepes buffer (pH 7.4), and the fluorescence was measured from the bottom surface of the plate using BIOTEK fluorescent microplate reader (Model FLx800i). Data are reported in the arbitrary fluorescence units measured (AU), after subtraction of the low levels of background fluorescence observed in the absence of BPA.
Bovine bronchi were isolated from the same lungs used for pulmonary arteries, and studied for changes in protoporphyrin IX fluorescence and force under the same conditions as bovine pulmonary arteries described above. […]

[7] = test system: VASP serine-239 phosphorylation (cGMP-dependent protein kinase activation); experiment: Western blot of VASP serine-239 phosphorylation in BPA; type: cell-based, bovine; details: organ culture with 100 μM ALA
Experimental: Rings from studies on contractile function were snap-frozen in liquid nitrogen, crushed and homogenized in lysis buffer (50 mM Tris-HCl, pH 8.0, 150 mM NaCl, 1 mM EDTA, 1% Triton X-100, 0.5% sodium deoxycholate, 0.1% sodium dodecyl sulfate, 1% of a protease inhibitor cocktail (Sigma) and 1% of a phosphatase inhibitor cocktail (Sigma). The protease inhibitor cocktail included 4-(2-aminoethyl)benzenesulfonyl floride hydrocholride, aprotinin, bestatin hydrochloride, N-(trans-epoxsuccinyl)-L-leucine-4-guanidinobutylamide, leupeptine hemisulfate, pepstatin and the phosphatase inhibitor cocktail included sodium orthovandate, sodium molybdate, sodium tartarate, and imidazole. Protein concentration was determined and 30 μg of protein samples were prepared in electrophoresis sample buffer containing 3% SDS and 3% β-mercaptoethanol and were separated using a 12% gel SDS-PAGE electrophoresis. Membranes were blocked for 1 h in TBST-5% milk and incubated overnight with phospho-VASP antibodies (diluted 1:1000). Membranes were exposed to a secondary horse radish peroxidase linked antibody and visualized with an ECL kit (Amersham). The membranes were subsequently exposed to X-OMAT autoradiography paper (Kodak). Membranes were stripped with TRIS-HCl buffer with 100 mM β-mercaptoethanol at 50° C. for 30 min. Membranes were subsequently washed, blocked and detected for total VASP. Each measurement of phosphorylated VASP was normalized to the total level of VASP, and data are reported as the percent of the levels of phosphorylated VASP seen in control arteries not exposed to agents which modulate the activity of sGC. Expression of sGC was detected with β-sGC subunit antibodies (diluted 1:2000), employing anti-rabbit secondary antibodies, and a protocol where membranes were blocked for 2 h. After analyzing for sGC protein expression, blots were stripped and re-probed for the detection of α-actin protein levels, which were used for normalization of data for statistical analysis based on protein loading.

## NCC(=O)CCC(=O)O [ALA, δ-aminolevulinic acid]
[1]
  protoporphyrin IX fluorescence in endothelium-rubbed aorta: increased in protoporphyrin IX fluorescence
[2]
  systemic and pulmonary artery pressure: reduction in systemic and pulmonary artery pressure
[3]
  levels of sGC relative to BPA organ cultured in the absence of ALA: 71±19%
[4]
  contraction of aorta to 10 μM PDBu: decreased contraction
[5]
  force generation to 10 μM acetylcholine (ACh): inhibits (relaxes) force generation
[6]
  protoporphyrin IX fluorescence: time-dependent increase in protoporphyrin IX fluorescence
[7]
  VASP serine-239 phosphorylation: increase in VASP phosphorylation
